Measurements taken from ChEMBL document CHEMBL3882732, “4,5-diaryl-3(2H)-furanone derivatives as cyclooxygenase-2 inhibitors” (2002).
pIC50: −log10 of the molar value.

Tests used:
[1] = biological target: T1, Prostaglandin G/H synthase 1 (Mus musculus, UniProt P22437); assay: Inhibition of COX1 in C57BL/6 mouse peritoneal macrophages assessed as reduction in PGE2 formation pre-incubated for 2 hrs followed by arachidonic acid addition and measured after 10 mins by radio-immuno assay or enzyme-immunoassay
T1 sequence (P22437 whole entry): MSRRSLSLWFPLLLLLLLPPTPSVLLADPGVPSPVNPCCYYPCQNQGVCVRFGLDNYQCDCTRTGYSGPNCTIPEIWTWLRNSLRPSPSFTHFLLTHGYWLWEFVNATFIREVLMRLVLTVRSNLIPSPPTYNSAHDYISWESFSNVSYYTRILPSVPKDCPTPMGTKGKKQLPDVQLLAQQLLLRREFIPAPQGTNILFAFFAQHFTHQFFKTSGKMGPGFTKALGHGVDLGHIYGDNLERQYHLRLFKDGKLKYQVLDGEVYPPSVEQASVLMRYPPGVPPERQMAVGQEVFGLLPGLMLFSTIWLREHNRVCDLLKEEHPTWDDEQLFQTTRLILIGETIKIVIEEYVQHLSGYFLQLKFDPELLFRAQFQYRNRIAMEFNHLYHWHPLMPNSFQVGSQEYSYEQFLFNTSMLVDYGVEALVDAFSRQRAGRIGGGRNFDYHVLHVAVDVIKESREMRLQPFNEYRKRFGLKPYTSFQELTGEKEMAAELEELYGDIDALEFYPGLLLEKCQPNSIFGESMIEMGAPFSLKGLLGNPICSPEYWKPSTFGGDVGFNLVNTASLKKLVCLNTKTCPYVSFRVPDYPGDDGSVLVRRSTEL

[2] = Drug level in Sprague-Dawley rat blood treated with 4-(3-Chlorophenyl)-2,2-dimethyl-5-{4-(methylsulfinyl)phenyl}-3(2H)-furanone at 10 mg/kg dosed through oral gavage assessed as sulfoxide to sulfonyl bio-transformation by measuring compound level measured after 24 to 48 hrs by HPLC method; format: ADME, organism-based; conditions: in vivo
[3] = Drug metabolism in Sprague-Dawley rat blood assessed as sulfoxide to sulfonyl bio-transformation by measuring compound-62 level at 10 mg/kg dosed through oral gavage measured after 24 to 48 hrs by HPLC method; format: ADME, organism-based; conditions: in vivo
Rattus norvegicus [4] = assay: Anti-inflammatory activity in Sprague-Dawley rat assessed as inhibition of carrageenan-induced foot edema at 3 mg/kg dosed through oral gavage 1 hr before carrageenan challenge and measured 3 hrs after carrageenan challenge; format: functional
[5] = biological target: T2, Prostaglandin G/H synthase 2 (Mus musculus, UniProt Q05769); assay: Inhibition of COX2 in C57BL/6 mouse peritoneal macrophages assessed as reduction in PGE2 formation pre-incubated for 2 hrs before LPS stimulation for 16 hrs followed by arachidonic acid addition and measured after 10 mins in presence of 500 uM aspirin by radio-immuno assay or enzyme-immunoassay
T2 sequence (Q05769 whole entry): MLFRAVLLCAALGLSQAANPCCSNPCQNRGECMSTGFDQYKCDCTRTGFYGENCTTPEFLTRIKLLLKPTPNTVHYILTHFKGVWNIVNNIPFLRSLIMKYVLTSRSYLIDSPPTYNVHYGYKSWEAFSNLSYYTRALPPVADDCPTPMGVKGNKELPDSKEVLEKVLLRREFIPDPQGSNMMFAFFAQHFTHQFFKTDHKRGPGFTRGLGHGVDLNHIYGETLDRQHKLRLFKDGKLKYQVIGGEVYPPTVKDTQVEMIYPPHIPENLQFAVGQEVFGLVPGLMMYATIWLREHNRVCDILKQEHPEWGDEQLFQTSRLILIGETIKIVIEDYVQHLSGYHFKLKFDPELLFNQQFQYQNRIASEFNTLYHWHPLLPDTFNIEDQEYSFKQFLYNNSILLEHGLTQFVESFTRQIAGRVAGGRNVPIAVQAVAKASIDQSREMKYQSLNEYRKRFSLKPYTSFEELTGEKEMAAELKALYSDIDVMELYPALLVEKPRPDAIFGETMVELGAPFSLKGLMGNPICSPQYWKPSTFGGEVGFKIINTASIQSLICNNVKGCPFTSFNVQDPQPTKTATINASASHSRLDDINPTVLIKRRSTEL

Rattus norvegicus [6] = assay: Anti-inflammatory activity in Sprague-Dawley rat model of […] Freund's adjuvant-induced arthritis assessed as inhibition of adjuvant-induced arthritis dosed through oral gavage daily once beginning on day 14 after adjuvant injection and continued till day 22 after adjuvant injection by displacement plethysmometry; format: functional
Mus musculus = assay: Analgesic activity in ICR mouse assessed as reduction in number of abdominal constrictions dosed through oral gavage one hr before acetic acid challenge measured after 6 mins post acetic acid challenge by acetic acid-induced writhing test; format: functional; conditions: Abdomen, 0.1 h

## CC(C)c1ccc(C2=C(c3ccc(S(C)(=O)=O)cc3)OC3(CCCC3)C2=O)cc1
[1]
  pIC50: 4.61

## CC1(C)OC(c2ccc(S(C)(=O)=O)cc2)=C(c2cccc(Cl)c2)C1=O
[2]
  Drug metabolism: Metabolite_Detected

## C[S+]([O-])c1ccc(C2=C(c3cccc(Cl)c3)C(=O)C(C)(C)O2)cc1 (stereo not drawn)
[3]
  Drug metabolism: Metabolite_Detected

## CC1(C)OC(c2ccc(S(N)(=O)=O)c(F)c2)=C(c2ccc(F)cc2F)C1=O
Rattus norvegicus [4]
  inhibition in vivo at 3 mg/kg: 32%

## CC(=O)c1cccc(C2=C(c3ccc(S(N)(=O)=O)cc3)OC(C)(C)C2=O)c1
[1]
  pIC50: 5.05
[5]
  pIC50: 7.47

## C[S+]([O-])c1ccc(C2=C(c3cccc(F)c3)C(=O)C(C)(C)O2)cc1 (stereo not drawn)
[1]
  pIC50: 4.54

## CC1(C)OC(c2ccc(S(N)(=O)=O)cc2F)=C(c2ccc(F)cc2)C1=O
Rattus norvegicus [6]
  ED50: 0.09 mg/kg

## C[S+]([O-])c1ccc(C2=C(c3ccc(F)cc3)C(=O)C(C)(C)O2)cc1 (stereo not drawn)
[1]
  pIC50: 4.06
[5]
  pIC50: 5.06

## CC1(C)OC(c2ccc(S(N)(=O)=O)cc2)=C(c2cccc(Cl)c2)C1=O
Rattus norvegicus [6]
  ED50: 0.03 mg/kg

## CC1(C)OC(c2ccc(S(C)(=O)=O)cc2)=C(c2cccc(F)c2)C1=O
Rattus norvegicus [6]
  ED50: 0.07 mg/kg
Mus musculus
  ED50: 8.3 mg/kg

## CC1(C)OC(c2ccc(S(C)(=O)=O)cc2)=C(c2cc(F)cc(F)c2)C1=O
Rattus norvegicus [6]
  ED50: 0.03 mg/kg

## CC1(C)OC(c2ccc(S(C)(=O)=O)cc2)=C(c2cccc(C(F)(F)F)c2)C1=O
Rattus norvegicus [6]
  ED50: 0.06 mg/kg

## COc1ccc2c(c1)c(CC(=O)O)c(C)n2C(=O)c1ccc(Cl)cc1 [INDOMETHACIN]
Mus musculus
  ED50: 7.4 mg/kg

## CC1(C)OC(c2ccc(S(N)(=O)=O)cc2)=C(c2cccc(F)c2)C1=O [POLMACOXIB]
Rattus norvegicus [6]
  ED50: 0.02 mg/kg
Mus musculus
  ED50: 12.3 mg/kg
